Results taken from article PMC12376241 (2025).
One block for each compound: values may come before it.

Tests used:
[1] = tested on: LR1 (RNA, aptamer) GGGAGAGGAGGGAGAUAGAUAUCAAACUAAACACUUGAGGCUCGAUCUUUAUUGUAUUUACACCAUCUUGUGCAUCAUUUCGUGGAUGCCACAGGAC; assay: fluorescence polarization, displacement of Cy3-ODN; details: 3 mM Mg2+, PBS, 0.005% Tween 20, 21 °C; for binding: 100 nM Cy3-ODN, 500 nM RNA, tested at 100 μM
[2] = tested on: R3 (RNA, aptamer) GGGAGAGGAGGGAGAUAGAUAUCAAGUCGGAGGUAUGAGGCUCGAUCACGAAGAAGGCCGAUUGGGUUACCCUCCUUUUUCGUGGAUGCCACAGGAC; assay: ITC; details: 300 μM ligand into 20 μM RNA
[3] = tested on: R3 (RNA, aptamer) GGGAGAGGAGGGAGAUAGAUAUCAAGUCGGAGGUAUGAGGCUCGAUCACGAAGAAGGCCGAUUGGGUUACCCUCCUUUUUCGUGGAUGCCACAGGAC; assay: fluorescence polarization, displacement of Cy3-ODN; details: 3 mM Mg2+, PBS, apparent, 0.005% Tween 20, 21 °C, 9-nt Cy3-ODN displaced, inhibitor vs response fit
[4] = tested on: R2 (RNA, aptamer) GGGAGAGGAGGGAGAUAGAUAUCAAGAGGUACGUAUGAGGCUCGAUCGGAAGGCUGGUCUAGGUCCCGUCCUGACCGUUUCGUGGAUGCCACAGGAC; assay: fluorescence polarization, displacement of Cy3-ODN; details: 3 mM Mg2+, PBS, 0.005% Tween 20, 21 °C, 9-nt Cy3-ODN, 500 nM RNA, 0.1-1 mM compound
[5] = tested on: T1 (RNA, aptamer) GGGAGAGGAGGGAGAUAGAUAUCAACUAUCGCUUGUGAGGCUCGAUCUUUAUGUGCCCCUCCUUCAGGUUUGGCGUCUUUCGUGGAUGCCACAGGAC; assay: fluorescence polarization, displacement of Cy3-ODN; details: 3 mM Mg2+, PBS, 0.005% Tween 20, 21 °C
[6] = tested on: T1 (RNA, aptamer) GGGAGAGGAGGGAGAUAGAUAUCAACUAUCGCUUGUGAGGCUCGAUCUUUAUGUGCCCCUCCUUCAGGUUUGGCGUCUUUCGUGGAUGCCACAGGAC; assay: ITC; details: 1 mM ligand into 50 μM RNA
[7] = tested on: LM1 (RNA, aptamer) GGGAGAGGAGGGAGAUAGAUAUCAACACUUGAACGUGAGGCUCGAUCUUUUUAGCUUUUUACUGCGGCGUUAACGGUUUUCGUGGAUGCCACAGGAC; assay: fluorescence polarization, displacement of Cy3-ODN; details: 3 mM Mg2+, PBS, apparent, 0.005% Tween 20, 21 °C, shortened Cy3-labelled capture ODN displaced, inhibitor vs response fit
[8] = tested on: LM1 (RNA, aptamer) GGGAGAGGAGGGAGAUAGAUAUCAACACUUGAACGUGAGGCUCGAUCUUUUUAGCUUUUUACUGCGGCGUUAACGGUUUUCGUGGAUGCCACAGGAC; assay: ITC; details: 3 mM Mg2+, PBS, 1 mM ligand into 20 μM RNA, ligand-into-buffer heat subtracted
[9] = tested on: HDB1 (RNA, aptamer) GGGAGAGGAGGGAGAUAGAUAUCAAACCCCAUCUUGAGGCUCGAUCGGCUCGUUUUUCAGGGAUAAGUAGAUUUAGUUUUUCGUGGAUGCCACAGGAC; assay: fluorescence polarization, displacement of Cy3-ODN; details: 3 mM Mg2+, PBS, apparent, 0.005% Tween 20, 21 °C, shortened Cy3-labelled capture ODN displaced, inhibitor vs response fit
[10] = tested on: LR1 (RNA, aptamer) GGGAGAGGAGGGAGAUAGAUAUCAAACUAAACACUUGAGGCUCGAUCUUUAUUGUAUUUACACCAUCUUGUGCAUCAUUUCGUGGAUGCCACAGGAC; assay: ITC; details: 3 mM Mg2+, PBS, 1 mM ligand into 20 μM RNA, ligand-into-buffer heat subtracted
[11] = tested on: HDB2 (RNA, aptamer) GGGAGAGGAGGGAGAUAGAUAUCAAACCGGCACCUGAGGCUCGAUCUUUGUUUGCAAAGGGCAUUGCAUCGAUGUGUUUUUCGUGGAUGCCACAGGAC; assay: ITC; details: 3 mM Mg2+, PBS, 1 mM ligand into 20 μM RNA, ligand-into-buffer heat subtracted, legend also prints HDB1
[12] = tested on: LM2 (RNA, aptamer) GGGAGAGGAGGGAGAUAGAUAUCAAACUAACAGUCUGAGGCUCGAUCUUUUGCAGAAACUUUCGUCUUUUGGCUAUCUUUCGUGGAUGCCACAGGAC; assay: fluorescence polarization, displacement of Cy3-ODN; details: 3 mM Mg2+, PBS, 0.005% Tween 20, 21 °C, 100 nM Cy3-ODN, 500 nM RNA, 100 μM compound
[13] = tested on: LR2 (RNA, aptamer) GGGAGAGGAGGGAGAUAGAUAUCAAUUACCACGCUUGAGGCUCGAUCUUUUGCUUUGUCCAUCUAGUGUUGUCUGCGUUUCGUGGAUGCCACAGGAC; assay: fluorescence polarization, displacement of Cy3-ODN; details: 3 mM Mg2+, PBS, 0.005% Tween 20, 21 °C, 100 nM Cy3-ODN, 500 nM RNA, 100 μM compound
[14] = tested on: P7 (RNA, aptamer) GGGAGAGGAGGGAGAUAGAUAUCAACAGGAACGGUUGAGGCUCGAUCAGAUACCCCUCGCUACAAUGCGGCAUUGGGUUUCGUGGAUGCCACAGGAC; assay: fluorescence polarization, displacement of Cy3-ODN; details: 3 mM Mg2+, PBS, 0.005% Tween 20, 21 °C, 9-nt Cy3-ODN, 500 nM RNA, 0.1-1 mM compound
[15] = tested on: I5 (RNA, aptamer) GGGAGAGGAGGGAGAUAGAUAUCAAACGAACGGCAUGAGGCUCGAUCUACGUUACCCCUCUGACGUUGGCAUUUGUGUUUCGUGGAUGCCACAGGAC; assay: fluorescence polarization, displacement of Cy3-ODN; details: 3 mM Mg2+, PBS, apparent, 0.005% Tween 20, 21 °C, 9-nt Cy3-ODN displaced, inhibitor vs response fit

Kd [7]: ~ 4 μM
Kd [8]: 38.0 ± 2.10 µM
Kd [9]: ~ 10 μM
Kd [10]: 34.7 ± 1.97 µM
Kd ([1]; apparent, shortened Cy3-labelled capture ODN displaced, inhibitor vs response fit): ~ 3 μM
Kd [11]: 55.9 ± 3.57 µM
binding [12]: yes
binding [13]: yes
SMILES: NC[C@@H]1O[C@H](O[C@H]2[C@@H](O)[C@H](O[C@@H]3[C@@H](O)[C@H](N)C[C@H](N)[C@H]3O[C@H]3O[C@H](CN)[C@@H](O)[C@H](O)[C@H]3N)O[C@@H]2CO)[C@H](N)[C@@H](O)[C@@H]1O

Kd [10]: 130.0 ± 30.9 µM
SMILES: NC[C@H]1O[C@H](O[C@H]2[C@H](O)[C@@H](O[C@H]3O[C@H](CO)[C@@H](O)[C@H](N)[C@H]3O)[C@H](N)C[C@@H]2N)[C@H](N)[C@@H](O)[C@@H]1O

binding [14]: weak
SMILES: Nc1nc2c(ncn2[C@@H]2O[C@H](COP(=O)(O)OP(=O)(O)O)[C@@H](OP(=O)(O)OP(=O)(O)O)[C@H]2O)c(=O)[nH]1

Kd [15]: ~ 76 μM
SMILES: O=P(O)(O)O[C@H]1[C@@H](OP(=O)(O)O)[C@H](OP(=O)(O)O)[C@@H](OP(=O)(O)OP(=O)(O)O)[C@H](OP(=O)(O)O)[C@H]1OP(=O)(O)O

Further lines, the compound ahead of its results:

SMILES: CC1(C)S[C@@H]2[C@H](NC(=O)[C@H](N)c3ccccc3)C(=O)N2[C@H]1C(=O)O
binding [1]: no

SMILES: Cc1cc2nc3c(=O)[nH]c(=O)nc-3n(C[C@H](O)[C@H](O)[C@H](O)CO)c2cc1C
Kd [2]: 9.88 ± 1.09 µM
Kd [3]: ~ 5 μM
binding [4]: weak

SMILES: Cn1c(=O)c2[nH]cnc2n(C)c1=O
binding [1]: no
Kd ([5]; apparent, 9-nt Cy3-ODN displaced, inhibitor vs response fit): ~ 54 μM
Kd [6]: 70.3 ± 6.33 µM

SMILES: Cn1c(=O)c2c(ncn2C)n(C)c1=O
binding ([5]; 9-nt Cy3-ODN tracer, no binding observed): no
binding ([6]; no interaction): no

SMILES: N=C(N)NCCC[C@H](N)C(=O)O
binding [1]: no

SMILES: Nc1ncnc2c1ncn2[C@@H]1O[C@@H]2COP(=O)(O)O[C@H]2[C@H]1O
binding [1]: no
